Test results as given in patent US20240306639A1, “USE OF FLUAZIFOP-P-BUTYL FOR INSECT CONTROL” (priority 2021, published 2024).

System: Bemisia tabaci (Silverleaf whitefly)
Assay: Curative control of Bemisia tabaci second nymph stage (N2) on French beans, spray application
Format: in vivo
From the text: Examples 1 to 3 describe biological tests relating to the curative and preventative control of a series of insects with the spray application of dilutions of a formulation containing fluazifop-P-butyl as sole active ingredient (EC125 formulation (FUSILADE MAX®)) in combination with OCHIMAR adjuvant (Syngenta-alkyl ester of phosphoric acid (752 g/L EC formulation)) to bean or cabbage plants infested with Bemisia tabaci, Frankliniella occidentalis or Myzus persicae. The testing protocols and insect control effects are shown. • ai=active ingredient (fluazifop-P-butyl).
Curative control of Bemisia tabaci (Silverleaf whitefly), second nymph stage (N2), treated on French beans (BBCH12):
• All treatments including check were applied with 250 mL adjuvant (Ochima) per hectare (ha).

For `CCCCOC(=O)[C@@H](C)Oc1ccc(Oc2ccc(C(F)(F)F)cn2)cc1` [fluazifop-P-butyl, butyl (2R)-2-[4-[5-(trifluoromethyl)pyridin-2-yl]oxyphenoxy]propanoate], the “efficacy against whiteflies compared to thrips or aphids” value (conclusion from the data in Tables 1 to 3) was “selective efficacy” and the controlling whitefly (effect enhanced compared to aphids and thrips) was “highly effective”.
